Test results published in article PMC11232109, “Synthesis, anticancer evaluation of novel hybrid pyrazole-based chalcones, molecular docking, DNA fragmentation, and gene expression: in vitro studies” (RSC Advances, 2024).

Tested on: BJ1 (normal skin fibroblasts)
Assay: MTT assay, normal cell line BJ1
Type: cell-based
Conditions: Skin fibroblast, 48 hours
Description: The percentage of the cell viability treated with the newly synthesized compounds was evaluated using MTT assay (3-(4,5-dimethylthiazol-2-yl)-2,5-diphenyl tetrazolium bromide). All the subsequent steps were done in a sterile Laminar flow class II biosafety cabinet (Baker, SG406INT, Sanford, ME, USA). DMEM was used as a suspension medium for breast cancer (MCF7), prostate cancer (PC3), and pancreatic cancer (PACA2), while normal cell line (BJ1) was suspended in DMEM-F12 medium, a 1% antibiotic-antimycotic mixture (10 000 U ml^−1 potassium penicillin, 10 000 μg ml^−1 streptomycin sulfate, and 25 μg ml^−1 amphotericin B), and 1% L-glutamine at 37 °C under 5% CO2.
Cells were cultured for 10 days and then seeded at a concentration of 10 × 10^4 cells per well in fresh complete growth medium in 96-well microtiter plastic plates at 37 °C for 24 hours under 5% CO2 using a water-jacketed carbon dioxide incubator (Sheldon, TC2323). Media were aspirated, serum-free fresh medium was added, and cells were incubated either alone (negative control) or with different concentrations of the synthesized chalcone derivatives to a final concentration of (100–50–25–12.5–6.25–3.125–0.78 and 1.56 μg ml^−1). After incubation for 48 hours, the medium was aspirated and 40 μl of MTT salt ([…]) was added to each well and incubated for another four hours at 37 °C under 5% CO2. To stop the reaction and dissolve the formed crystals, 200 μl of 10% sodium dodecyl sulfate (SDS) in deionized water was added to each well and incubated overnight at 37 °C.
The absorbance was then measured at 595 nm and a reference wavelength of 620 nm using a microplate multi-well reader (Bio-Rad Laboratories Inc., model 3350). Statistical significance was tested between the samples and the negative control (cells with vehicle) using an independent t-test using the SPSS 11 program. DMSO was the vehicle used for the dissolution of the synthesized chalcones, and its final concentration on the cells was less than 0.2%. The percentage of change in viability was calculated according to the formula: ((reading of extract/reading of negative control) − 1) × 100. A Probit analysis was carried out for the determination of IC50 using the SPSS 11 program.

## COc1cccc2c1C(=O)c1c(O)c3c(c(O)c1C2=O)C[C@@](O)(C(=O)CO)C[C@@H]3O[C@H]1C[C@H](N)[C@H](O)[C@H](C)O1 [Doxorubicin, reference compound]
  IC50: 13.6 ± 0.28 µM
